Assay results taken from ChEMBL document CHEMBL4616607, “3D proteome-wide scale screening and activity evaluation of a new ALKBH5 inhibitor in U87 glioblastoma cell line” (Bioorg Med Chem, 2020).
The source made the active and inactive calls. No cut-off for these calls is given here.

Columns and labels:
NCI-H460 [1] = assay: Antimigratory activity against human H460 cells assessed as inhibition of cell migration measured after 24 hrs by scratch wound healing assay; format: functional, cell-based
NCI-H460 [2] = assay: Cytotoxicity against human H460 cells assessed as effect on cell viability at 1 to 50 uM measured after 24 hrs by MTT assay; format: functional, cell-based
[3] = target: RNA demethylase ALKBH5 (Homo sapiens) (UniProt Q6P6C2); assay: Inhibition of ALKBH5 demethylase activity in human U87MG cells assessed as decrease in CD73 expression at 10 uM measured after 2 hrs by Western blot analysis; format: cell-based; conditions: U-87MG ATCC
Chain of RNA demethylase ALKBH5 (Homo sapiens) (Q6P6C2 2-394 limits assumed): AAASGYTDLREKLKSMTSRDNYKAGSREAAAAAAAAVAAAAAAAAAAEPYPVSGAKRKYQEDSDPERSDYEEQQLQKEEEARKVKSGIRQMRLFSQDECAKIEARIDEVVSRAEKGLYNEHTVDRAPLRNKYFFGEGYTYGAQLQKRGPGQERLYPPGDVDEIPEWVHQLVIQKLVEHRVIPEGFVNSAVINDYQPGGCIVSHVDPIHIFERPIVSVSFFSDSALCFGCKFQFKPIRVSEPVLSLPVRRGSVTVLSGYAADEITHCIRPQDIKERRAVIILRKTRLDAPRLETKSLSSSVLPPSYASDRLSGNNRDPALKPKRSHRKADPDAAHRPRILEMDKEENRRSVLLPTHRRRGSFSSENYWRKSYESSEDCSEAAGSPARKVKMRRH

U-87 MG [4] = assay: Antiinvasive activity against human U87MG cells assessed as reduction in cell invasion measured after 24 hrs using Diff-quick staining by light microscopy based Boyden chamber assay; format: functional, U-87MG ATCC
[5] = target: RNA demethylase ALKBH5 (Homo sapiens) (UniProt Q6P6C2); assay: Inhibition of human recombinant ALKBH5 demethylase activity assessed as increase in methylated 6A-RNA level at 10 to 25 uM incubated for 30 min by dot blot analysis relative to control
[6] = target: RNA demethylase ALKBH5 (Homo sapiens) (UniProt Q6P6C2); assay: Inhibition of ALKBH5 demethylase activity in human U87MG cells assessed as decrease in CD73 expression measured after 1 to 24 hrs by Western blot analysis; format: cell-based; conditions: U-87MG ATCC
A549 [7] = assay: Cytotoxicity against human A549 cells assessed as reduction in cell viability measured after 24 hrs by MTT assay; format: functional, cell-based
A549 [8] = assay: Antiinvasive activity against human A549 cells assessed as reduction in cell invasion measured after 24 hrs using Diff-quick staining by light microscopy based Boyden chamber assay; format: functional
[9] = target: RNA demethylase ALKBH5 (Homo sapiens) (UniProt Q6P6C2); assay: Inhibition of human recombinant ALKBH5 demethylase activity assessed as increase in methylated 6A-RNA level incubated for 30 min by dot blot analysis
U-87 MG [10] = assay: Cytotoxicity against human U87MG cells assessed as effect on cell viability at 1 to 50 uM measured after 24 hrs by SRB assay; format: functional, cell-based; conditions: U-87MG ATCC
U-87 MG [11] = assay: Cytotoxicity against human U87MG cells assessed as effect on cell viability at 1 to 50 uM measured after 24 hrs by MTT assay; format: functional, cell-based; conditions: U-87MG ATCC
NCI-H460 [12] = assay: Antiinvasive activity against human H460 cells assessed as reduction in cell invasion measured after 24 hrs using Diff-quick staining by light microscopy based Boyden chamber assay; format: functional
U-87 MG [13] = assay: Effect on CD73 mRNA expression in human U87MG cells at 10 to 25 uM measured after 1 to 6 hrs by RT-PCR analysis; format: functional, cell-based; conditions: U-87MG ATCC
A549 [14] = assay: Antimigratory activity against human A549 cells assessed as reduction in cell migration at 25 uM measured after 24 hrs by scratch wound healing assay; format: functional, cell-based
NCI-H460 [15] = assay: Cytotoxicity against human H460 cells assessed as effect on cell viability at 1 to 50 uM measured after 24 hrs by SRB assay; format: functional, cell-based
U-87 MG [16] = assay: Antimigratory activity against human U87MG cells assessed as inhibition of cell migration measured after 6 hrs by scratch wound healing assay; format: functional, cell-based, U-87MG ATCC
U-87 MG [17] = assay: Antiinvasive activity against human U87MG cells assessed as reduction in cell invasion at 25 to 50 uM measured after 24 hrs using Diff-quick staining by light microscopy based Boyden chamber assay relative to control; format: functional, U-87MG ATCC; set-up: scale not given: the % may be the effect or the level left
A549 [18] = assay: Cytotoxicity against human A549 cells assessed as reduction in cell viability after 24 hrs by SRB assay; format: functional, cell-based
[19] = target: RNA demethylase ALKBH5 (Homo sapiens) (UniProt Q6P6C2); assay: Inhibition of ALKBH5 demethylase activity in human U87MG cells assessed as decrease in CD73 expression at 10 uM measured after 1 hr by Western blot analysis; format: cell-based; conditions: U-87MG ATCC

Structure (SMILES): CCCc1c(C)nc2c3ccccc3oc(=S)n12
- inhibition (NCI-H460 [1]): Dose-dependent effect
- IC50 (NCI-H460 [1]; NCI-H460, 24 h): 10.1 µM
- Activity (NCI-H460 [2]): inactive
- inhibition [3]: Active
- IC50 (U-87 MG [4]): 2.48 µM
- Activity (U-87 MG [4]; U-87MG ATCC): Dose-dependent effect
- fold change (FC) [5]: 3
- inhibition [6]: Dose-dependent effect
- Activity (A549 [7]): Dose-dependent effect
- Activity (A549 [8]): Dose-dependent effect
- IC50 (A549 [8]; A549, 24 h): 26.2 µM
- inhibition [9]: Dose-dependent effect
- Activity (U-87 MG [10]): inactive
- Activity (U-87 MG [11]): inactive
- Activity (NCI-H460 [12]): Dose-dependent effect
- IC50 (NCI-H460 [12]; NCI-H460, 24 h): 17.8 µM
- Activity (U-87 MG [13]): inactive
- Activity (A549 [14]): inactive
- Activity (NCI-H460 [15]): inactive
- IC50 (U-87 MG [16]): 11 µM
- inhibition (U-87 MG [16]; U-87MG ATCC): Dose-dependent effect
- Activity (U-87 MG [17]): 90%
- Activity (A549 [18]): Dose-dependent effect
- inhibition [19]: Active

Structure (SMILES): NC1=N[C@H](O)[C@H]2[C@H]3O[C@]4(O)O[C@@H]([C@@H](O)[C@@]2(N1)[C@@H]4O)[C@]3(O)CO
- Activity (NCI-H460 [12]): Dose-dependent effect
